# Reference: patent US6864217B2, “Herbicidal compositions with substituted phenylsulfonylureas for controlling weeds in rice” (Hoechst Schering AgrEvo GmbH, priority 1998, dated 2005)
# Like-named read-outs stand apart in the source and are kept apart here.
# What was measured:
# Cyperus serotinus [1] = assay: Table 19 field trial, treatment at the 2 leaf stage: weed control; assay type: in vivo; settings: 14 days after application
# Text: (§1) Field trial: Treatment at the 2 leaf stage, evaluation 14 days after the application.
# Oryza sativa [2] = assay: Table 19 field trial, treatment at the 2 leaf stage: rice damage; assay type: in vivo; settings: 14 days after application
# Text: as §1
# Ipomoea hederacea = assay: Table 20 field trial, treatment at the 4-6 leaf stage: weed control; assay type: in vivo; settings: 28 days after application
# Text: (§2) Field trial: Treatment at the 4-6 leaf stage, evaluation 28 days after the application.
# Oryza sativa [3] = assay: Table 20 field trial, treatment at the 4-6 leaf stage: rice damage; assay type: in vivo; settings: 28 days after application
# Text: as §2
# Cyperus serotinus [4] = assay: Table 21 field trial, treatment at the 2 leaf stage: weed control; assay type: in vivo; settings: 28 days after application
# Text: (§3) Field trial: Treatment at the 2 leaf stage, evaluation 28 days after the application.
# Oryza sativa [5] = assay: Table 21 field trial, treatment at the 2 leaf stage: rice damage; assay type: in vivo
# Text: as §3
# Sagittaria pygmaea = assay: Table 22 field trial, treatment: 1-2 leaf stage: weed control; assay type: in vivo; settings: 28 days after application
# Text: Field trial: Treatment: 1-2 leaf stage, evaluation 28 days after the application.
# Oryza sativa [6] = assay: Table 6 field trial, treatment at the 1-2 leaf stage: rice damage; assay type: in vivo; settings: in vivo
# Description: (§9) The examples mentioned below were carried out in the greenhouse, and in some instances, in field trials.
# Echinochloa crusgalli [7] = assay: Table 6 field trial, treatment at the 1-2 leaf stage: weed control; assay type: in vivo; settings: 28 days after application
# Description: as §9
# Echinochloa crusgalli [8] = assay: Table 7 field trial, treatment at the 1-2 leaf stage: weed control; assay type: in vivo; settings: 28 days after application
# Description: as §9
# Echinochloa crusgalli [9] = assay: Table 8 greenhouse trial, treatment at the 1-2 leaf stage: weed control; assay type: in vivo; settings: 22 days after application
# Text: (§4) Seeds or rhizome pieces of mono- and dicotyledonous weed plants are placed into sandy loam soil in plastic pots, covered with soil and grown in a greenhouse under good growth conditions (temperature, atmospheric humidity, water supply). Weeds which are encountered in the cultivation of rice are cultivated in pots in which the water level is up to 2 cm over the soil surface. […] The active compound combinations according to the invention, formulated as wettable powders or emulsion concentrates, and, in parallel experiments, the correspondingly formulated individual active compounds are sprayed onto the green parts of the plants at different dosages using an amount of water of 300 to 600 l/ha (converted), and, after about 3 to 4 weeks of the test plants in the greenhouse under optimum growth conditions (temperature, atmospheric humidity, water supply), the effect of the preparations is evaluated visually in comparison to untreated controls. In the case of rice or weeds which are encountered in the cultivation of rice, the active compounds are also added directly to the water for irrigation (application analogous to the so-called granules application) or sprayed onto plants and added to the water for irrigation. The experiments were designed with several, up to five, repetitions. The herbicidal compositions according to the invention also have good herbicidal post-emergence activity against a broad spectrum of economically important weed grasses and broad-leaved weeds.
# Marsilea crenata = assay: Table 7 field trial, treatment at the 1-2 leaf stage: weed control; assay type: in vivo; settings: 28 days after application
# Description: as §9
# Oryza sativa [10] = assay: Table 8 greenhouse trial, treatment at the 1-2 leaf stage: rice damage; assay type: in vivo; settings: 22 days after application
# Text: as §4
# Oryza sativa [11] = assay: Table 7 field trial, treatment at the 1-2 leaf stage: rice damage; assay type: in vivo; settings: 28 days after application
# Description: as §9
# Polygonum convolvulus = assay: Table 25 field trial, treatment at the 3 leaf stage: weed control; assay type: in vivo; settings: 33 days after application
# Text: (§5) Field trial: Treatment at the 3 leaf stage, evaluation 33 days after the application.
# Oryza sativa [12] = assay: Table 25 field trial, treatment at the 3 leaf stage: rice damage; assay type: in vivo; settings: 33 days after application
# Text: as §5
# Echinochloa crusgalli [13] = assay: Table 17 field trial, treatment at the 2 leaf stage: weed control; assay type: in vivo; settings: 14 days after application
# Text: as §1
# Oryza sativa [14] = assay: Table 17 field trial, treatment at the 2 leaf stage: rice damage; assay type: in vivo; settings: 14 days after application
# Text: as §1
# Cyperus iria = assay: Table 24 field trial, treatment by the pre-emergence method: weed control; assay type: in vivo; settings: 400 g of ai/ha, 53 days after application
# Text: (§6) Field trial: Treatment by the pre-emergence method, evaluation 53 days after the application.
# Oryza sativa [15] = assay: Table 24 field trial, treatment by the pre-emergence method: rice damage; assay type: in vivo; settings: in vivo
# Text: as §6
# Echinochloa crusgalli [16] = assay: Table 11 greenhouse trial, treatment at the 1-2 leaf stage: weed control; assay type: in vivo; settings: 20 days after application
# Description: (§7) Seeds or rhizome pieces of mono- and dicotyledonous weed plants are placed into sandy loam soil in plastic pots, covered with soil and grown in a greenhouse under good growth conditions (temperature, atmospheric humidity, water supply). Weeds which are encountered in the cultivation of rice are cultivated in pots in which the water level is up to 2 cm over the soil surface. Three weeks after sowing, the test plants are treated at the three-leaf stage. The active compound combinations according to the invention, formulated as wettable powders or emulsion concentrates, and, in parallel experiments, the correspondingly formulated individual active compounds are sprayed onto the green parts of the plants at different dosages using an amount of water of 300 to 600 l/ha (converted), and, after about 3 to 4 weeks of the test plants in the greenhouse under optimum growth conditions (temperature, atmospheric humidity, water supply), the effect of the preparations is evaluated visually in comparison to untreated controls. In the case of rice or weeds which are encountered in the cultivation of rice, the active compounds are also added directly to the water for irrigation (application analogous to the so-called granules application) or sprayed onto plants and added to the water for irrigation. The experiments were designed with several, up to five, repetitions. The herbicidal compositions according to the invention also have good herbicidal post-emergence activity against a broad spectrum of economically important weed grasses and broad-leaved weeds.
# (§8) Greenhouse trial: Treatment at the 1-2 leaf stage, evaluation 20 days after the application.
# Oryza sativa [17] = settings: in vivo
# Description: as §7, with “The herbicidal compositions according to the invention also have good herbicidal post-emergence activity against a broad spectrum of economically important weed grasses and broad-leaved weeds.” left out
# Cyperus serotinus [18] = assay: Table 12 greenhouse trial, treatment at the 1-2 leaf stage: weed control; assay type: in vivo; settings: 20 days after application
# Description: as §7, §8
# Oryza sativa [19] = assay: Table 12 greenhouse trial, treatment at the 1-2 leaf stage: rice damage; assay type: in vivo; settings: greenhouse trial, 20 days after application
# Description: as §7, §8
# Oryza sativa [20] = assay: Table 26 field trial, treatment at the 3 leaf stage: rice damage; assay type: in vivo; settings: 33 days after application
# Text: as §5
# Commelina benghalensis = assay: Table 26 field trial, treatment at the 3 leaf stage: weed control; assay type: in vivo; settings: 33 days after application
# Text: as §5
smiles,measurement,setting,value
C#CCN(C)c1c(C#N)cnn1-c1nn2c(c1Cl)CCCC2 [B33b)],CYPSE % control,Cyperus serotinus [1]; 100 g of ai/ha,40%
same,CYPSE % control,Cyperus serotinus [1]; 200 g of ai/ha,50%
same,CYPSE % control,Cyperus serotinus [1]; 400 g of ai/ha,80%
same,ORYSW % damage,Oryza sativa [2]; 100 g of ai/ha,6%
same,ORYSW % damage,Oryza sativa [2]; 200 g of ai/ha,8%
same,ORYSW % damage,Oryza sativa [2]; 400 g of ai/ha,12%
"CCSC(=O)N1CCCCCC1 [B10), S-ethyl hexahydro-1H-azepin-1-carbothioate]",IPOHE % control,Ipomoea hederacea; 4480 g of ai/ha,55%
same,ORYSW % damage,Oryza sativa [3]; 4480 g of ai/ha,0%
"CC(C)(SC(=O)N1CCCCC1)c1ccccc1 [B9), S-(1-methyl-1-phenylethyl)1-piperidincarbothioate]",CYPSE % control,Cyperus serotinus [4]; 3000 g of ai/ha,45%
same,ORYSW % damage,"Oryza sativa [5]; 3000 g of ai/ha, field trial, 28 days after application",5%
"CN(C(=O)COc1nc2ccccc2s1)c1ccccc1 [B5), 2-(2-benzothiazolyloxy)-N-methyl-N-phenylacetamide]",SAGPY % control,Sagittaria pygmaea; 600 g of ai/ha,0%
same,SAGPY % control,Sagittaria pygmaea; 1200 g of ai/ha,0%
same,SAGPY % control,Sagittaria pygmaea; 2400 g of ai/ha,0%
"CCCCOCN(C(=O)CCl)c1c(CC)cccc1CC [B1), N-(butoxymethyl)-2-chloro-N-(2,6-diethylphenyl)acetamide]",ORYSW % damage,Oryza sativa [6],0%
same,ECHCG % control,Echinochloa crusgalli [7]; 300 g of ai/ha,81%
same,ECHCG % control,Echinochloa crusgalli [7]; 600 g of ai/ha,89%
"CCC(=O)Nc1ccc(Cl)c(Cl)c1 [B7), N-(3,4-dichlorophenyl)propanamide]",ECHCG % control,Echinochloa crusgalli [8]; 1000 g of ai/ha,79%
same,ECHCG % control,Echinochloa crusgalli [8]; 2000 g of ai/ha,88%
same,ECHCG % control,Echinochloa crusgalli [9]; 1250 g of ai/ha,0%
same,ECHCG % control,Echinochloa crusgalli [9]; 2500 g of ai/ha,0%
same,ECHCG % control,Echinochloa crusgalli [9]; 5000 g of ai/ha,10%
same,MASCR % control,Marsilea crenata; 1000 g of ai/ha,0%
same,MASCR % control,Marsilea crenata; 2000 g of ai/ha,0%
same,ORYSW % damage,Oryza sativa [10]; 1250 g of ai/ha,0%
same,ORYSW % damage,Oryza sativa [10]; 2500 g of ai/ha,0%
same,ORYSW % damage,Oryza sativa [10]; 5000 g of ai/ha,0%
same,ORYSW % damage,Oryza sativa [11]; 1000 g of ai/ha,0%
same,ORYSW % damage,Oryza sativa [11]; 2000 g of ai/ha,0%
"COc1c(Cl)ccc(Cl)c1C(=O)O [B31), 3,6-dichloro-o-anisic acid]",POLCO % control,Polygonum convolvulus; 240 g of ai/ha,45%
same,POLCO % control,Polygonum convolvulus; 480 g of ai/ha,80%
same,ORYSW % damage,Oryza sativa [12]; 240 g of ai/ha,8%
same,ORYSW % damage,Oryza sativa [12]; 480 g of ai/ha,10%
"CCN(CC)C(=O)SCc1ccc(Cl)cc1 [B11), S-[(4-chlorophenyl)methyl]diethylcarbamothioate]",IPOHE % control,Ipomoea hederacea; 3300 g of ai/ha,43%
same,ORYSW % damage,Oryza sativa [3]; 3300 g of ai/ha,3%
"CSC(=O)c1c(C(F)F)nc(C(F)(F)F)c(C(=O)SC)c1CC(C)C [B24), S,S′-dimethyl-2-(difluoromethyl)-4-(2-methylpropyl)-6-(trifluoromethyl)-3,5-pyridindicarbothioate]",CYPSE % control,Cyperus serotinus [4]; 60 g of ai/ha,60%
same,ORYSW % damage,Oryza sativa [5]; in vivo,6%
"CCOC(=O)C(Cl)Cc1cc(-n2nc(C)n(C(F)F)c2=O)c(F)cc1Cl (racemic) [B38), ethyl (RS)-2-chloro-3-[2-chloro-5-(4-difluoromethyl-4,5-dihydro-3-methyl-5-oxo-1H-1,2,4-,triazol-1-yl)-4-fluorophenyl]propionate]",ECHCG % control,Echinochloa crusgalli [13]; 7.5 g of ai/ha,50%
same,ECHCG % control,Echinochloa crusgalli [13]; 15 g of ai/ha,52%
same,ECHCG % control,Echinochloa crusgalli [13]; 30 g of ai/ha,52%
same,ORYSW % damage,Oryza sativa [14]; 7.5 g of ai/ha,0%
same,ORYSW % damage,Oryza sativa [14]; 15 g of ai/ha,0%
same,ORYSW % damage,Oryza sativa [14]; 30 g of ai/ha,0%
"CC1(C)CON(Cc2ccccc2Cl)C1=O [B44), 2-[(2-chlorophenyl)methyl]-4,4-dimethyl-3-isoxazolidinone]",CYPIR % control,Cyperus iria,30%
same,ORYSW % damage,Oryza sativa [15],0%
"COc1cccc(N(C)C(=S)Oc2cccc(C(C)(C)C)c2)n1 [B12), O-[3-(1,1-dimethylethyl)phenyl](6-methoxy-2-pyridinyl)methylcarbamothioate]",CYPSE % control,Cyperus serotinus [4]; 600 g of ai/ha,65%
same,ORYSW % damage,"Oryza sativa [5]; 600 g of ai/ha, field trial, 28 days after application",3%
"O=C(O)COc1nc(Cl)c(Cl)cc1Cl [B40), [(3,5,6-trichloro-2-pyridinyl)oxy]acetic acid]",IPOHE % control,Ipomoea hederacea; 420 g of ai/ha,65%
same,ORYSW % damage,Oryza sativa [3]; 420 g of ai/ha,20%
"COc1cc(OC)nc(NC(=O)NS(=O)(=O)c2c(Cl)nc3ccccn23)n1 [B61), 2-chloro-N-[[(4,6-dimethoxy-2-pyrimidinyl)amino]-carbonyl]imidazo[1,2-a]pyridine-3-sulfonamide]",ECHCG % control,Echinochloa crusgalli [16]; 8 g of ai/ha,0%
same,ECHCG % control,Echinochloa crusgalli [16]; 15 g of ai/ha,25%
same,ECHCG % control,Echinochloa crusgalli [16]; 30 g of ai/ha,50%
same,ECHCG % control,Echinochloa crusgalli [16]; 60 g of ai/ha,60%
same,ORYSW % damage,Oryza sativa [17],0%
"CCC1(CC2(c3cccc(Cl)c3)CO2)C(=O)c2ccccc2C1=O (racemic) [B71), (RS)-2-[2-(3-chlorophenyl)-2,3-epoxypropyl]-2-ethyl-indane-1,3-dione]",CYPSE % control,Cyperus serotinus [4]; 150 g of ai/ha,55%
same,ORYSW % damage,Oryza sativa [5]; in vivo,4%
"COCCOc1ccccc1S(=O)(=O)NC(=O)Nc1nc(OC)nc(OC)n1 [B60), N-[[(4,6-dimethoxy-1,3,5-triazin-2-yl)amino]carbonyl]-2-(2-methoxyethoxy)benzolsulfonamide]",CYPSE % control,Cyperus serotinus [18]; 15 g of ai/ha,0%
same,CYPSE % control,Cyperus serotinus [18]; 30 g of ai/ha,15%
same,CYPSE % control,Cyperus serotinus [18]; 60 g of ai/ha,15%
same,ORYSW % damage,Oryza sativa [19]; 15 g of ai/ha,0%
same,ORYSW % damage,Oryza sativa [19]; 30 g of ai/ha,0%
same,ORYSW % damage,Oryza sativa [19]; 60 g of ai/ha,5%
"CC(C)=C1OC(=O)N(c2cc(OC3CCCC3)c(Cl)cc2F)C1=O [B70), 3-(4-chloro-5-cyclopentyloxy-2-fluorophenyl)-5-iso-propylidene-1,3-oxazolidine-2,4-dione]",CYPSE % control,Cyperus serotinus [1]; 150 g of ai/ha,50%
same,CYPSE % control,Cyperus serotinus [1]; 450 g of ai/ha,65%
same,ORYSW % damage,Oryza sativa [2]; 150 g of ai/ha,0%
same,ORYSW % damage,Oryza sativa [2]; 450 g of ai/ha,0%
"COc1nc(C)nc(NC(=O)NS(=O)(=O)c2ccccc2C(=O)O)n1 [B57), 2-(4-methoxy-6-methyl-1,3,5-triazin-2-ylcarbamoyl-sulfamoyl)benzoic acid]",ORYSW % damage,Oryza sativa [20]; 1 g of ai/ha,0%
same,ORYSW % damage,Oryza sativa [20]; 2 g of ai/ha,0%
same,COMBE % control,Commelina benghalensis; 1 g of ai/ha,20%
same,COMBE % control,Commelina benghalensis; 2 g of ai/ha,68%
